From ChEMBL document CHEMBL1201862, “PubChem BioAssay data set” (2004)
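The compound was tested at five concentrations on cells cultured in 96-well plates, with a 48-hour exposure period. GI50 = concentration required for 50% inhibition of growth.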 Calls of active or inactive are those of the source. Cut-off read from the data, not from the text of the source: active = GI50 up to about 1.1 µM and inactive = higher.

How the values were obtained:
Test in all cases: inhibition of tumour cell growth, NCI panel, 48 h
[1] = system: OVCAR-4
[2] = system: KM-20L2
[3] = system: SF-539
[4] = system: MCF7
[5] = system: OVCAR-5
[6] = system: HCT-15
[7] = system: SK-OV-3
[8] = system: DLD-1
[9] = system: SK-MEL-2
[10] = system: COLO 205
[11] = system: A498
[12] = system: OVCAR-3
[13] = system: HCC 2998
[14] = system: SW-620
[15] = system: SNB-75
[16] = system: NCI-H23
[17] = system: TK-10
[18] = system: M14
[19] = system: CAKI-1
[20] = system: ACHN

Structure (SMILES) | GI50 [1] | GI50 [2] | GI50 [3] | GI50 [4] | GI50 [5] | GI50 [6] [µM] | GI50 [7] | GI50 [8] | GI50 [9] | GI50 [10] | GI50 [11] | GI50 [12] | GI50 [13] | GI50 [14] | GI50 [15] | GI50 [16] | GI50 [17] | GI50 [18] | GI50 [19] | GI50 [20]
COc1cc([C@@H]2c3cc4c(c(O[C@@H]5O[C@H]6CO[C@@H](C)O[C@H]6[C@H](O)[C@@H]5O)c3C[C@H]3COC(=O)[C@@H]32)OCO4)cc(OC)c1O | 9.16 µM (inactive) | 34.9 µM (inactive) | 2.81 µM (inactive) | 4.15 µM (inactive) | 97.1 µM (inactive) | 14.6 | 19.6 µM (inactive) | 27.7 µM (inactive) | 27.3 µM (inactive) | 38.8 µM (inactive) | 4.11 µM (inactive) | 6.76 µM (inactive) | 26.9 µM (inactive) | 8.3 µM (inactive) | 5.32 µM (inactive) | 15.1 µM (inactive) | – | – | – | –
O=S(=O)(O)c1cc2ccc1/C=C\c1ccc(cc1S(=O)(=O)O)/N=N\c1ccc(c(S(=O)(=O)O)c1)/C=C\c1ccc(cc1S(=O)(=O)O)/N=N\2 | > 86.1 µM (inactive) | > 100 µM (inactive) | > 100 µM (inactive) | > 100 µM (inactive) | > 100 µM (inactive) | > 100 | > 100 µM (inactive) | > 100 µM (inactive) | > 100 µM (inactive) | > 100 µM (inactive) | > 100 µM (inactive) | > 100 µM (inactive) | > 100 µM (inactive) | > 100 µM (inactive) | > 100 µM (inactive) | > 100 µM (inactive) | – | – | – | –
Cc1cccc(N2C(=O)C3c4[nH]c5ccc(C)cc5c4C4CCC(C(C)(C)C)CC4C3C2=O)c1 (configuration not stated) | 23.1 µM (inactive) | – | – | – | 32.7 µM (inactive) | 53.7 | – | – | 38.1 µM (inactive) | 17.4 µM (inactive) | – | 13.6 µM (inactive) | – | 21 µM (inactive) | – | 26.1 µM (inactive) | 24.6 µM (inactive) | 20.2 µM (inactive) | 31.6 µM (inactive) | –
CCOC(=O)C(O)(NC(=O)c1ccc(F)cc1)C(F)(F)F (configuration not stated) | > 100 µM (inactive) | – | > 100 µM (inactive) | > 100 µM (inactive) | > 100 µM (inactive) | > 100 | > 100 µM (inactive) | – | > 100 µM (inactive) | > 100 µM (inactive) | – | > 100 µM (inactive) | > 100 µM (inactive) | > 100 µM (inactive) | > 100 µM (inactive) | > 100 µM (inactive) | > 100 µM (inactive) | > 100 µM (inactive) | > 100 µM (inactive) | > 100 µM (inactive)
CC(/C=N/N=C(N)N)=N\N=C(N)N | 3.4 µM (inactive) | 12.8 µM (inactive) | 8.04 µM (inactive) | 27.4 µM (inactive) | – | 94 | 43.4 µM (inactive) | 48.9 µM (inactive) | 12.8 µM (inactive) | 3.02 µM (inactive) | 253 µM (inactive) | 6.11 µM (inactive) | 5.57 µM (inactive) | 7.21 µM (inactive) | 25.2 µM (inactive) | 18.5 µM (inactive) | 44.7 µM (inactive) | 43.6 µM (inactive) | – | 22.8 µM (inactive)
CCOC(C)OC1CC(n2cc(C)c(=O)[nH]c2=O)OC1CO (configuration not stated) | > 100 µM (inactive) | > 100 µM (inactive) | > 100 µM (inactive) | – | > 100 µM (inactive) | > 100 | > 100 µM (inactive) | > 100 µM (inactive) | > 100 µM (inactive) | > 100 µM (inactive) | > 100 µM (inactive) | > 100 µM (inactive) | > 100 µM (inactive) | > 100 µM (inactive) | – | > 100 µM (inactive) | > 100 µM (inactive) | > 100 µM (inactive) | – | > 100 µM (inactive)
Cc1c2c(cc3c1[nH]c1ccccc13)C(c1ccc(F)cc1)=NCC2 | 0.703 µM (active) | 1.11 µM (active) | 1.13 µM (inactive) | 1.09 µM (active) | 1.74 µM (inactive) | 0.904 | 1.37 µM (inactive) | 0.851 µM (active) | 1.21 µM (inactive) | 0.679 µM (active) | 1.37 µM (inactive) | 0.993 µM (active) | 1.04 µM (active) | 0.665 µM (active) | 1.24 µM (inactive) | 1.15 µM (inactive) | – | – | 0.796 µM (active) | –
Cc1ccccc1OCC(COC(=O)Nc1ccccc1)OC(=O)Nc1ccccc1 (configuration not stated) | 13.1 µM (inactive) | 52.2 µM (inactive) | 4.15 µM (inactive) | – | > 100 µM (inactive) | > 100 | 59.7 µM (inactive) | 28.8 µM (inactive) | 22 µM (inactive) | 72.3 µM (inactive) | 61.2 µM (inactive) | 87.7 µM (inactive) | 83.8 µM (inactive) | 52.8 µM (inactive) | 7.1 µM (inactive) | 54 µM (inactive) | > 100 µM (inactive) | 28.1 µM (inactive) | 26.5 µM (inactive) | > 100 µM (inactive)
CCCC[C@H]1[C@@H](OCOc2ccccc2)COC(=O)N1[C@H](C)c1ccccc1 | 10.3 µM (inactive) | – | – | 11.2 µM (inactive) | 17.3 µM (inactive) | 15.9 | 22.4 µM (inactive) | – | 15.1 µM (inactive) | 25.9 µM (inactive) | 12.9 µM (inactive) | 14.7 µM (inactive) | 17.7 µM (inactive) | 32.1 µM (inactive) | 10.8 µM (inactive) | 18.2 µM (inactive) | 15.6 µM (inactive) | 12.6 µM (inactive) | 13.5 µM (inactive) | 18.2 µM (inactive)
Cc1[nH]c(=O)[nH]c(=O)c1C(=O)N(CCO)Cc1ccccc1 | 29.3 µM (inactive) | – | > 100 µM (inactive) | > 100 µM (inactive) | > 100 µM (inactive) | > 100 | > 100 µM (inactive) | – | > 100 µM (inactive) | 22.3 µM (inactive) | > 100 µM (inactive) | > 100 µM (inactive) | > 100 µM (inactive) | > 100 µM (inactive) | – | 33 µM (inactive) | > 100 µM (inactive) | > 100 µM (inactive) | – | > 100 µM (inactive)
CC1=CC2c3cccc4[nH]cc(c34)CC2N(C)C1 (configuration not stated) | > 100 µM (inactive) | > 76.2 µM (inactive) | > 100 µM (inactive) | 95.1 µM (inactive) | > 100 µM (inactive) | > 100 | > 100 µM (inactive) | > 37.8 µM (inactive) | > 100 µM (inactive) | 55.6 µM (inactive) | > 76.6 µM (inactive) | > 100 µM (inactive) | 25.5 µM (inactive) | > 100 µM (inactive) | 38.5 µM (inactive) | > 100 µM (inactive) | – | – | 66.7 µM (inactive) | –
Nc1ncc2c(n1)-c1ccccc1OC2 | > 31.6 µM (inactive) | > 100 µM (inactive) | > 100 µM (inactive) | > 100 µM (inactive) | > 100 µM (inactive) | > 100 | > 100 µM (inactive) | > 100 µM (inactive) | > 100 µM (inactive) | > 100 µM (inactive) | 51.2 µM (inactive) | > 100 µM (inactive) | > 100 µM (inactive) | > 100 µM (inactive) | 22.6 µM (inactive) | > 100 µM (inactive) | – | – | – | –
